Source: publication PMC8206213, “An L-2-hydroxyglutarate biosensor based on specific transcriptional regulator LhgR” (Nature Communications, 2021)
Where “and” joins values, the source holds several entries; their conditions need not be identical. Equal entries are not always repeated.

Experiments:
Format in all cases: binding, Pseudomonas putida W619
LHGFR0N3C [1] = assay: Influence of other compounds on the response of purified LHGFR0N3C to L-2-HG; settings: Suppl. Fig. 9a, three replicates
Method: (§1) Purified L-2-HG biosensors and different compounds were diluted by 50 mM Tris-HCl buffer (pH 7.4), mixed together in a black 96-well plate at a volume ratio of 3:1, and the fluorescence intensities were measured using an EnSight microplate reader (PerkinElmer, USA) with excitation at 430 nm, emission at 485 nm (mTFP) and 528 nm (Venus). […] The [L-2-HG], Kd, and p refer to the L-2-HG concentration, apparent dissociation constant, and Hill slope, respectively. Emission spectra were recorded at 430 nm excitation, in steps of 2 nm. Excitation spectra were recorded using emission at 550 nm, excitation from 380 to 535 nm in steps of 2 nm.

LHGFR0N7C [2] = assay: Influence of other compounds on the response of purified LHGFR0N7C to L-2-HG; settings: Suppl. Fig. 9b, three replicates
Method: as §1

LHGFR0N3C [3] = assay: Specificity of purified LHGFR0N3C, emission ratio with 240 μM compounds; settings: 240 μM compound
Method: as §1

LHGFR0N7C [4] = assay: Specificity of purified LHGFR0N7C, emission ratio with 240 μM compounds; settings: 240 μM compound
Method: as §1

[5] = L-2-HG alone or with the compound

Row | Compound | Emission ratio (LHGFR0N3C [1]; 50 μM ATP) | Emission ratio (LHGFR0N3C [1]; 100 μM ATP) | Emission ratio (LHGFR0N3C [1]; 500 μM ATP) | Emission ratio (LHGFR0N3C [1]; 1 mM ATP) | Emission ratio (LHGFR0N3C [1]; 5 mM ATP) | Emission ratio (LHGFR0N7C [2]; 50 μM ATP) | Emission ratio (LHGFR0N7C [2]; 100 μM ATP) | Emission ratio (LHGFR0N7C [2]; 500 μM ATP) | Emission ratio (LHGFR0N7C [2]; 1 mM ATP) | Emission ratio (LHGFR0N7C [2]; 5 mM ATP) | Emission ratio (LHGFR0N3C [3]) | Induction of emission ratio changes (LHGFR0N3C [3]) | Emission ratio (LHGFR0N7C [4]) | Induction of emission ratio changes (LHGFR0N7C [4]) | Emission ratio (LHGFR0N3C [1]; [5]) | Emission ratio (LHGFR0N7C [2]; [5])
1 | Nc1ncnc2c1ncn2[C@@H]1O[C@H](COP(=O)(O)OP(=O)(O)OP(=O)(O)O)[C@@H](O)[C@H]1O [ATP] | 2.0763 and 2.03 and 2.053 | 2.022 and 2.017 and 2.045 | 2.063 (2×) and 2.059 | 2.142 and 2.082 and 2.1362 | 2.1045 and 2.1074 and 2.154 | 2.546 and 2.581 and 2.59 | 2.59 and 2.574 and 2.618 | 2.6191 and 2.584 and 2.589 | 2.6148 and 2.611 (2×) | 2.6574 and 2.624 and 2.63 |  |  |  |  |  | 
2 | O=C(O)/C=C(/CC(=O)O)C(=O)O [Cis-aconitate, cis-aconitate] |  |  |  |  |  |  |  |  |  |  | 1.358 and 1.383 and 1.3936 | None | 1.7035 and 1.722 and 1.738 | None | 2.04 and 2.059 and 2.056 | 2.594 and 2.591 and 2.61
3 | O=C(O)CC(O)(CC(=O)O)C(=O)O [Citrate] |  |  |  |  |  |  |  |  |  |  | 1.344 and 1.397 and 1.391 | None | 1.665 and 1.672 and 1.697 | None | 1.986 and 2.033 and 2.109 | 2.561 and 2.588 and 2.595
4 | C[C@@H](O)C(=O)O [D-Lactate, D-lactate] |  |  |  |  |  |  |  |  |  |  | 1.395 | None | 1.7153 and 1.693 and 1.686 | None | 2.084 and 2.089 and 2.108 | 2.595 and 2.609 and 2.633
5 | O=C(O)/C=C/C(=O)O [Fumarate] |  |  |  |  |  |  |  |  |  |  | 1.378 and 1.374 and 1.399 | None | 1.695 and 1.71 and 1.714 | None | 1.9538 and 2.042 and 2.049 | 2.613 and 2.5931 and 2.59
6 | C[C@H](O)C(=O)O [L-Lactate, L-lactate] |  |  |  |  |  |  |  |  |  |  | 1.397 and 1.412 and 1.41 | None | 1.748 and 1.739 and 1.741 | None | 2.088 and 2.079 and 2.04 | 2.6205 and 2.619 and 2.644
7 | O=C(O)C[C@H](O)C(=O)O [L-Malate, L-malate] |  |  |  |  |  |  |  |  |  |  | 1.354 and 1.373 (2×) | None | 1.654 and 1.687 and 1.723 | None | 2.062 and 2.063 and 2.08 | 2.598 and 2.599 and 2.61
8 | O=C(O)CC(=O)C(=O)O [Oxaloacetate] |  |  |  |  |  |  |  |  |  |  | 1.3879 and 1.4027 and 1.379 | None | 1.671 (2×) and 1.68 | None | 2.024 and 2.069 and 2.088 | 2.5106 and 2.58 and 2.608
9 | CC(=O)C(=O)O [Pyruvate, pyruvate] |  |  |  |  |  |  |  |  |  |  | 1.366 and 1.361 and 1.386 | None | 1.667 and 1.6731 and 1.709 | None | 2.0125 and 2.04 and 2.083 | 2.56 and 2.596 and 2.595
